The source of these data is US20240058251A1, “Composition for Oral Cavity” (SUNSTAR SUISSE SA, priority 2020, published 2024).

For this assay, the system named is Streptococcus oralis spp. tigurinus. The assay is described as follows: S. oralis culture test (Alamar Blue fluorescence; proliferation rate relative to a control containing no sample solution). It counts as cell-based. As to the method: S. oralis was cultured in BHI medium (Brain Heart Infusion broth (manufactured by BD)). After the turbidity of the medium at a wavelength of 660 nm was measured, the culture solution was diluted with BHI medium until the turbidity was 0.1. The diluted medium was used as a bacterial solution. As S. oralis, Streptococcus oralis spp. tigurinus was used.
Sample solutions of Examples and Comparative Examples were prepared by dissolving an amino acid and a sugar in the BHI medium. The concentrations of the amino acid in the sample solutions were set at 0 mg/ml or 15 mg/ml and the concentrations of the sugar were set at 20 mg/ml.
To the wells of a 96-well plate, the bacterial solution (100 μl) and a sample solution (100 μl) were added. The 96-well plate was subjected to culturing performed at 37° C. in anaerobic conditions for 24 hours. After completion of the culture, the supernatant was removed and 110 μl of an Alamar Blue solution (manufactured by Invitrogen) diluted 11-fold with phosphate buffer saline (PBS), was added. Fluorescence intensity was measured at an excitation wavelength of 545 nm and a fluorescence wavelength of 590 nm. A relative value thereof to the fluorescence intensity of a control containing no sample solution was calculated as the proliferation rate of S. oralis. The proliferation rate calculated was evaluated based on the following evaluation criteria. The results are shown in Table 1. • A: 10 or more • B: 5 or more and less than 10 • C: less than 5 […]
The proliferation rate of S. oralis in the case in which galactose was used as the sugar and citrulline was used as the amino acid, was measured. The test method was the same as in Test 1. The concentrations of galactose and citrulline in sample solutions and the measurement results of proliferation rates are shown in Table 3. In Test 3, the concentrations of galactose in sample solutions were set at 0 mg/ml or 2 mg/ml and the concentrations of citrulline were set at 0.5 to 3.0 mg/ml.
The proliferation rate of S. oralis was measured in the case in which 2′-fucosyllactose was used as the sugar and arginine was used as the amino acid. The test method was the same as in Test 1. The concentrations of 2′-fucosyllactose and arginine in sample solutions and the measurement results of proliferation rates are shown in Table 4. […]
(Alamar Blue is a resazurin reagent that responds to reducing activity.)

Turning to `N=C(N)NCCC[C@H](N)C(=O)O` [Comparative Example 1, Arginine], the “Effect of promoting proliferation of S. oralis (in words)” value (“Effect” below) (Test 1) was “not obtained”. The “Evaluation of proliferation rate” value (Test 1, sample solution in BHI medium: sugar 20 mg/ml, amino acid 0 or 15 mg/ml, 37° C., anaerobic, 24 hours) is listed as “C (less than 5)”.

Consider `NC(=O)NCCC[C@H](N)C(=O)O` [Comparative Example 8, Citrulline], for which the “Effect” value (Test 3, citrulline 0.5 to 3.0 mg/ml, galactose 0 or 2 mg/ml) is recorded as “the effect of proliferating S. oralis was promoted but the level of the proliferation promotion effect decreased as the concentration of citrulline increased”. The Proliferation rate is 3.8 (Test 3, galactose 0 mg/ml, citrulline 0.5 mg/ml); 2.7 (Test 3, galactose 0 mg/ml, citrulline 1.0 mg/ml); 1.8 (Test 3, galactose 0 mg/ml, citrulline 2.0 mg/ml).

Compound `C[C@@H]1O[C@@H](O[C@H]2[C@H](O[C@H]3[C@H](O)[C@@H](O)C(O)O[C@@H]3CO)O[C@H](CO)[C@H](O)[C@@H]2O)[C@@H](O)[C@H](O)[C@@H]1O` (some centres unmarked) [Comparative Example 9, 2′-Fucosyllactose] came in with a Proliferation rate (Test 4, 2′-fucosyllactose 1 mg/ml, arginine 0 mg/ml) of 1.0; a Proliferation rate (Test 4, 2′-fucosyllactose 2 mg/ml, arginine 0 mg/ml) of 1.5; a Proliferation rate (Test 4, 2′-fucosyllactose 3 mg/ml, arginine 0 mg/ml) of 0.9; a Proliferation rate (Test 4, 2′-fucosyllactose 4 mg/ml, arginine 0 mg/ml) of 0.6. For the same compound, the “Effect” value (Test 4, 2′-fucosyllactose 1 to 4 mg/ml, arginine 0 or 1.5 mg/ml) was “scarcely observed”.
